Marks after values point to notes of the source that are not given here.
Tests used:
[1] = Thickness of phosphonic acid layer by depth profiling using XPS; format: physicochemical; conditions: for Phosphorus/Metal: Metal = Zr3d + Y3d
Procedure: Two ceramic discs (yttria stabilized zirconia; length 5.0 mm, diameter 1.0 mm) were provided with a roughened surface, produced by sand blasting and acid etching according to industry standards. The discs were immersed in 80 ml of a 2% (v/v) aqueous solution of deconex 15 PF-x (which is a phosphate free, potassium hydroxide based standard cleaning agent). The solution was placed in an ultrasonic bath (output frequency 30 kHz) and sonicated at 70° C. for 15 min. This step was repeated a second time. The discs were removed from the cleaning agent solution and rinsed with water as follows: 2 times with 90 ml, swirling at room temperature; 3 times with 90 ml, sonicating for 2 min at 70° C. The discs were then placed into 2 glass bottles and immersed into 2.5 ml of a 0.7 mM aqueous solution of 1,1,3,3-propane tetraphosphonic acid. The solutions were placed in the ultrasonic bath and sonicated at 70° C. for 60 min. The discs were rinsed with water as follows: 1 time with 10 ml, swirling at room temperature; 1 time with 10 ml, sonicating for 2 min at 65° C.; 1 time with 10 ml, swirling at room temperature. The discs were dried in a desiccator over P2O5 and under vacuum (ca 20 mbar) for at least 3 hours.
Following the surface treatment, the thickness of the phosphonic acid layer was determined by depth profiling using XPS. Ion gun sputtering cycles were alternated with XPS measurements. An ion gun was used to etch the material for a defined period of time. Once turned off, XPS spectra were acquired. The depth profiles were performed using a Kratos AXIS Nova high resolution spectrometer. An Al-standard source was used for the measurement. Depth profile sputtering was performed by scanning a 3.8 keV Ar+ beam at 100 μA extractor current over an area of 4 mm×4 mm. The sputter rate of Ta2O5 standards measured under these conditions (6 nm/min) was used to convert sputter time in approximate sputter depth. Spectra were measured after the following sputtering times: 0, 5, 10, 15, 20, 30, 40, 60 sec. Spectra were peak fitted after background subtraction by assuming a Gaussian/Lorentzian (90-70/10-30) peak shape. All peaks between 0 eV to 1200 eV were inspected.
The phosphorus peak was measured at % atomic concentrations close to the detection limit (0.5%) after 10 seconds of sputtering.

[2] = XPS phosphorus over metal ratio (surface coverage) on Titanium grade 23 dental implants; format: physicochemical; conditions: sonicated 65° C. 10 min, Metal = Ti2p + Al2s + V2p
Procedure: A Titanium grade 23 dental implant (bulk composition atomic concentration Titanium 90%, Aluminum 6%, Vanadium 4%; length 11.0 mm, diameter 3.75 mm) was provided with a roughened surface, produced by sand blasting and acid etching according to industry standards. The dental implant was immersed in 40 ml of a 2% (v/v) aqueous solution of deconex 15 PF-x (which is a phosphate free, potassium hydroxide based standard cleaning agent). The solution was placed in an ultrasonic bath (output frequency 30 kHz) and sonicated at 65° C. for 30 min. The implant was removed from the cleaning agent solution and rinsed with water as follows: 2 times with 40 ml, swirling at room temperature; 4 times with 40 ml, sonicating for 2 min at 65° C.; 1 time with 40 ml, swirling at room temperature. The implant was then placed into 5 ml of a 0.7 mM aqueous solution of 1,1,3,3-propane tetraphosphonic acid. The solution was placed in the ultrasonic bath and sonicated at 65° C. for 10 min. The implant was rinsed with water as follows: 2 times with 10 ml, swirling at room temperature; 1 time with 10 ml, sonicating for 2 min at 65° C.; 1 time with 10 ml, swirling at room temperature. The dental implant was dried in a desiccator over P2O5 and under vacuum (ca 20 mbar) for at least 3 hours.
Ten Titanium grade 23 dental implants (bulk composition atomic concentration Titanium 90%, Aluminum 6%, Vanadium 4%; length 11.0 mm, diameter 3.75 mm) were provided with a roughened surface, produced by sand blasting and acid etching according to industry standards. The dental implants were immersed in 400 ml of a 2% (v/v) aqueous solution of deconex 15 PF-x (which is a phosphate free, potassium hydroxide based standard cleaning agent). The solution was placed in an ultrasonic bath (output frequency 30 kHz) and sonicated at 65° C. for 30 min. The implants were removed from the cleaning agent solution and rinsed with water as follows: 2 times with 400 ml, swirling at room temperature; 4 times with 400 ml, sonicating for 2 min at 65° C.; 1 time with 400 ml, swirling at room temperature. The implants were then placed one after the other into 5 ml of a 0.7 mM aqueous solution of 1,1,3,3-propane tetraphosphonic acid. The solution was placed in the ultrasonic bath and sonicated at 65° C. for 10 min. After the treatment with the phosphonic acid, each implant was rinsed with water as follows: 1 time with 10 ml, swirling at room temperature; 1 time with 10 ml, sonicating for 2 min at 65° C.; 1 time with 10 ml, swirling at room temperature. The dental implants were dried in a desiccator over P2O5 and under vacuum (ca 30 mbar) for at least 3 hours.
A Titanium grade 23 dental implant (bulk composition atomic concentration Titanium 90%, Aluminum 6%, Vanadium 4%; length 13.0 mm, diameter 3.75 mm) was provided with a roughened surface, produced by sand blasting and acid etching according to industry standards. The implant was immersed in 13 ml of a 0.7 mM aqueous solution of 1,1,3,3-propane tetraphosphonic acid. The solution was placed in an ultrasonic bath and sonicated at room temperature for 10 min. The implant was rinsed with water as follows: 1 time with 10 ml, swirling at room temperature; 2 times with 10 ml, sonicating for 1 min at room temperature. The dental implant was dried in a heating oven (ca 70° C.) for at least 1 hour. […]
Following the surface treatment with one phosphonic acid compound as described in Examples 1 to 7 the samples were analyzed by X-ray photoelectron spectroscopy (XPS). […]

thickness of monolayer ([1]; 0.7 mM, sonicated 70° C. 60 min, sputter depth from Ta2O5 standard rate): about 1 nm
Phosphorus/Metal ([1]; sputtering 0 sec, depth 0 nm): 0.18^b
Phosphorus/Metal ([1]; sputtering 5 sec, depth 0.5 nm): 0.03^b
Phosphorus/Metal ([1]; sputtering 10 sec, depth 1 nm): 0.02^b
Phosphorus/Metal ([1]; sputtering 15 sec, depth 1.5 nm): 0.02^b
Phosphorus/Metal ([1]; sputtering 20 sec, depth 2 nm): 0.01^b
Phosphorus/Metal ([1]; sputtering 30 sec, depth 3 nm): 0.02^b
Phosphorus/Metal ([1]; sputtering 40 sec, depth 4 nm): 0.01^b
Phosphorus/Metal ([1]; sputtering 60 sec, depth 6 nm): 0.00^b
Phosphorus/Metal ([2]; 0.7 mM): 0.19
Phosphorus/Metal ([2]; 2 mM): 0.18
Phosphorus/Metal ([2]; 3.5 mM): 0.17
Phosphorus/Metal ([2]; 5 mM): 0.18
Phosphorus/Metal ([2]; 7 mM): 0.18
SMILES: O=P(O)(O)C(CC(P(=O)(O)O)P(=O)(O)O)P(=O)(O)O [1,1,3,3-propane tetraphosphonic acid]
